System: neurons of the locus coeruleus (LC); mu opioid receptor-coupled K^+ channels
Type: cell-based, rat

Row | Compound | effect on residual Ba^2+-insensitive outward current | effect on responses to uncaging stimuli
1 | Nc1ccncc1 [4-AP] | unable to block or occlude | –
2 | CC1(C)[C@@H](OC(=O)CCC(=O)O)CC[C@]2(C)[C@H]3C(=O)C=C4[C@@H]5C[C@@](C)(C(=O)O)CC[C@]5(C)CC[C@@]4(C)[C@]3(C)CC[C@@H]12 [carbenoxolone] | – | not significantly attenuated
3 | ZD7288 | unable to block or occlude | –

From publication PMC3282187 (Neuron, 2012)
